Reference: patent publication US4110327A, “2,3 Diketo-piperazinocarbonylamino alkanoic acids and derivatives” (Toyama Chemical Co., Ltd., priority 1974, dated 1978)
Converted amounts (≈) assume the structure as drawn.

Experiments:
[1] = test system: Klebsiella pneumoniae; assay: MIC against clinical isolates; assay type: cell-based; conditions: unit assumed
[2] = test system: Proteus vulgaris; assay: MIC against clinical isolates; assay type: cell-based; conditions: clinical isolate, unit assumed
[3] = test system: Shigella flexneri; assay: MIC against clinical isolates; assay type: cell-based; conditions: unit assumed
Method: (§1) The minimum inhibitory concentrations (MIC) was determined by the plate method disclosed in "Chemotherapy" (Japan), Vol. 16, (1968), pages 98 - 99. The culture medium used was a Heart infusion agar (pH 7.4). The number of the cells per plate used in the inoculum as 10^4 (10^6 cells/ml).
(§2) MIC was determined in the same manner as in the preceding paragraph (1).

[4] = test system: Shigella sonnei; assay: MIC against clinical isolates; assay type: cell-based; conditions: unit assumed
Method: as §1, §2

[5] = test system: β-lactamase; assay: Resistant activity against β-lactamase, iodometric assay; assay type: biochemical, Pseudomonas aeruginosa GN 238; conditions: relative to Potassium Penicillin G = 100
Method: (3) Resistant activity against β-lactamase, Pseudomonas aergionan GN 238:
The resistant activity of each compound against β-lactamase was measured in the manner described below.
β-Lactamase was prepared from Pseudomonas aeruginosa GN 238. This microorganism was cultured in 100 ml of a medium containing 2 g of yeast extract, 10 g of polypeptone, 2 g of glucose, 7 g of disodium hydrogen phosphate, 2 g of potassium dihydrogen phosphate, 1.2 g of ammonium sulfate and 0.4 g of magnesium sulfate, per liter, in a 500-ml Erlenmeyer flask for 6 hrs. at 37° C with shaking. The resulting cells were collected by centrifugation (5,000 r.p.m. × 10 min.), washed three times with 0.1 M phosphate buffer (pH 7.0). Subsequently, the cells were subjected to sonication (20 KHz, 20 min.) and then centrifuged at 15,000 r.p.m. for 60 min. By using the supernatant of enzyme fluid, the resistance of each compound against β-lactamase was determined by the iodometric assay method. Each numeral shown in Table 7 is a relative activity value calculated by assuming as 100 the activity of the control Potassium Penicillin G.

[6] = test system: Salmonella typhi-murium; assay: MIC against clinical isolates; assay type: cell-based; conditions: unit assumed
[7] = test system: Pseudomonas aeruginosa; assay: MIC against clinical isolates; assay type: cell-based; conditions: unit assumed
[8] = test system: Staphylococcus aureus; assay: MIC against clinical isolates; assay type: cell-based; conditions: unit assumed
[9] = test system: Proteus morganii; assay: MIC against clinical isolates; assay type: cell-based; conditions: clinical isolate, unit assumed
[10] = test system: Proteus mirabilis; assay: MIC against clinical isolates; assay type: cell-based; conditions: clinical isolate, unit assumed
[11] = test system: Proteus rettgeri; assay: MIC against clinical isolates; assay type: cell-based; conditions: clinical isolate, unit assumed
[12] = test system: Salmonella typhi; assay: MIC against clinical isolates; assay type: cell-based; conditions: unit assumed
[13] = test system: Escherichia coli; assay: MIC against clinical isolates; assay type: cell-based; conditions: unit assumed
[14] = test system: Staphylococcus aureus 209p; assay: MIC against standard strain, plate method; assay type: cell-based; conditions: unit assumed
Summary of the method: (§3)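 Plate-method MIC. Medium: heart infusion agar, pH 7.4. Inoculum: 10^4 cells per plate (10^6 cells/ml).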

[15] = test system: Klebsiella pneumoniae; assay: MIC against standard strain, plate method; assay type: cell-based; conditions: unit assumed
Summary of the method: as §3

[16] = test system: Escherichia coli NIHJ; assay: MIC against standard strain, plate method; assay type: cell-based; conditions: unit assumed
Summary of the method: as §3

[17] = test system: Proteus vulgaris 3027; assay: MIC against standard strain, plate method; assay type: cell-based; conditions: Proteus vulgaris 3027, standard strain; unit assumed
Summary of the method: as §3

[18] = test system: Pseudomonas aeruginosa I.F.O.; assay: MIC against standard strain, plate method; assay type: cell-based; conditions: unit assumed
Summary of the method: as §3

[19] = clinical isolate GN (number not given; Table 5-3)

CCN1CCN(C(=O)N[C@@H](C(=O)N[C@@H]2C(=O)N3[C@@H]2SC(C)(C)[C@@H]3C(=O)O)c2ccccc2)C(=O)C1=O [compound 36]
MIC ([1]; clinical isolate GN 3850): 12.5 µg/mL (≈ 24.2 µM) | MIC ([1]; clinical isolate GN 4081): 100 µg/mL (≈ 193 µM) | MIC ([1]; clinical isolate GN 4117): 100 µg/mL (≈ 193 µM) | MIC [2]: < 0.4 µg/mL | MIC ([3]; clinical isolate JS 11215): 100 µg/mL (≈ 193 µM) | MIC ([3]; clinical isolate JS 11839): 3.13 µg/mL (≈ 6.05 µM) | MIC ([4]; clinical isolate JS 11232): 50 µg/mL (≈ 96.6 µM) | MIC ([4]; clinical isolate JS 11755): 3.13 µg/mL (≈ 6.05 µM) | Relative activity [5]: 14% | MIC ([6]; clinical isolate SL 858): 6.25 µg/mL (≈ 12.1 µM) | MIC ([6]; clinical isolate SL 2136): > 200 µg/mL | MIC ([7]; clinical isolate GN 221): 3.13 µg/mL (≈ 6.05 µM) | MIC ([7]; clinical isolate GN 1035): 25 µg/mL (≈ 48.3 µM) | MIC ([7]; clinical isolate GN 2565): 25 µg/mL (≈ 48.3 µM) | MIC ([7]; clinical isolate GN 2987): 12.5 µg/mL (≈ 24.2 µM) | MIC [7, 19]: 12.5 µg/mL (≈ 24.2 µM) | MIC ([7]; clinical isolate S-1): 50 µg/mL (≈ 96.6 µM) | MIC ([7]; clinical isolate S-2): 12.5 µg/mL (≈ 24.2 µM) | MIC ([7]; clinical isolate S-3): 25 µg/mL (≈ 48.3 µM) | MIC ([7]; clinical isolate S-4): 50 µg/mL (≈ 96.6 µM) | MIC ([8]; clinical isolate F-1): 12.5 µg/mL (≈ 24.2 µM) | MIC ([8]; clinical isolate F-2): 3.13 µg/mL (≈ 6.05 µM) | MIC ([8]; clinical isolate F-5): > 200 µg/mL | MIC ([8]; clinical isolate MS 8588): 3.13 µg/mL (≈ 6.05 µM) | MIC ([8]; clinical isolate MS 8596): 3.13 µg/mL (≈ 6.05 µM) | MIC ([8]; clinical isolate MS 8619): 0.79 µg/mL (≈ 1.53 µM) | MIC ([8]; clinical isolate MS 8684): 3.13 µg/mL (≈ 6.05 µM) | MIC [9]: < 0.4 µg/mL | MIC [10]: < 0.4 µg/mL | MIC [11]: 12.5 µg/mL (≈ 24.2 µM) | MIC ([12]; clinical isolate SL 819): 1.57 µg/mL (≈ 3.03 µM) | MIC ([12]; clinical isolate SL 2169): 1.57 µg/mL (≈ 3.03 µM) | MIC ([13]; clinical isolate GN 3452): 3.13 µg/mL (≈ 6.05 µM) | MIC ([13]; clinical isolate GN 3465): 100 µg/mL (≈ 193 µM) | MIC ([13]; clinical isolate GN 3481): 3.13 µg/mL (≈ 6.05 µM) | MIC ([13]; clinical isolate GN 3611): > 200 µg/mL | MIC ([13]; clinical isolate K-1): 3.13 µg/mL (≈ 6.05 µM) | MIC ([13]; clinical isolate K-2): 3.13 µg/mL (≈ 6.05 µM) | MIC ([13]; clinical isolate K-3): > 200 µg/mL | MIC [14]: < 1.57 µg/mL | MIC [15]: < 1.57 µg/mL | MIC [16]: < 1.57 µg/mL | MIC [17]: < 1.57 µg/mL

CCCCCCN1CCN(C(=O)N[C@@H](C(=O)N[C@@H]2C(=O)N3[C@@H]2SC(C)(C)[C@@H]3C(=O)O)c2ccccc2)C(=O)C1=O (single isomer, unassigned) [compound 46]
MIC ([1]; clinical isolate GN 917): 0.79 µg/mL (≈ 1.38 µM) | MIC ([1]; clinical isolate GN 4081): 12.5 µg/mL (≈ 21.8 µM) | MIC ([1]; clinical isolate GN 4117): 12.5 µg/mL (≈ 21.8 µM) | MIC [2]: < 0.4 µg/mL | MIC ([3]; clinical isolate JS 11215): 6.25 µg/mL (≈ 10.9 µM) | MIC ([3]; clinical isolate JS 11839): 0.79 µg/mL (≈ 1.38 µM) | MIC ([4]; clinical isolate JS 11232): 12.5 µg/mL (≈ 21.8 µM) | MIC ([4]; clinical isolate JS 11755): 0.79 µg/mL (≈ 1.38 µM) | Relative activity [5]: 12% | MIC ([6]; clinical isolate SL 858): < 0.4 µg/mL | MIC ([6]; clinical isolate SL 2136): 50 µg/mL (≈ 87.2 µM) | MIC ([7]; clinical isolate GN 82): 6.25 µg/mL (≈ 10.9 µM) | MIC ([7]; clinical isolate GN 163): 6.25 µg/mL (≈ 10.9 µM) | MIC ([7]; clinical isolate GN 221): 12.5 µg/mL (≈ 21.8 µM) | MIC ([7]; clinical isolate GN 376): 25 µg/mL (≈ 43.6 µM) | MIC ([7]; clinical isolate GN 383): 25 µg/mL (≈ 43.6 µM) | MIC ([7]; clinical isolate GN 1035): 50 µg/mL (≈ 87.2 µM) | MIC ([7]; clinical isolate GN 1091): 12.5 µg/mL (≈ 21.8 µM) | MIC ([7]; clinical isolate GN 2565): 12.5 µg/mL (≈ 21.8 µM) | MIC ([7]; clinical isolate GN 2987): 6.25 µg/mL (≈ 10.9 µM) | MIC [7, 19]: 12.5 µg/mL (≈ 21.8 µM) | MIC ([7]; clinical isolate S-1): 50 µg/mL (≈ 87.2 µM) | MIC ([7]; clinical isolate S-2): 50 µg/mL (≈ 87.2 µM) | MIC ([7]; clinical isolate S-3): 50 µg/mL (≈ 87.2 µM) | MIC ([7]; clinical isolate S-4): 50 µg/mL (≈ 87.2 µM) | MIC ([8]; clinical isolate F-1): 6.25 µg/mL (≈ 10.9 µM) | MIC ([8]; clinical isolate F-3): 0.79 µg/mL (≈ 1.38 µM) | MIC ([8]; clinical isolate F-4): 6.25 µg/mL (≈ 10.9 µM) | MIC ([8]; clinical isolate F-5): > 200 µg/mL | MIC ([8]; clinical isolate MS 8596): 3.13 µg/mL (≈ 5.46 µM) | MIC ([8]; clinical isolate MS 8619): < 0.4 µg/mL | MIC ([8]; clinical isolate MS 8713): 6.25 µg/mL (≈ 10.9 µM) | MIC [9]: < 0.4 µg/mL | MIC [10]: < 0.4 µg/mL | MIC [11]: 3.13 µg/mL (≈ 5.46 µM) | MIC ([12]; clinical isolate SL 819): 1.57 µg/mL (≈ 2.74 µM) | MIC ([12]; clinical isolate SL 2169): 0.79 µg/mL (≈ 1.38 µM) | MIC ([13]; clinical isolate GN 3435): < 0.4 µg/mL | MIC ([13]; clinical isolate GN 3452): 0.79 µg/mL (≈ 1.38 µM) | MIC ([13]; clinical isolate GN 3465): 6.25 µg/mL (≈ 10.9 µM) | MIC ([13]; clinical isolate GN 3481): 3.13 µg/mL (≈ 5.46 µM) | MIC ([13]; clinical isolate GN 3611): > 200 µg/mL | MIC ([13]; clinical isolate K-1): 0.79 µg/mL (≈ 1.38 µM) | MIC ([13]; clinical isolate K-2): 0.79 µg/mL (≈ 1.38 µM) | MIC ([13]; clinical isolate K-3): 50 µg/mL (≈ 87.2 µM) | MIC ([13]; clinical isolate K-4): < 0.4 µg/mL | MIC [14]: 0.2 µg/mL (≈ 0.349 µM) | MIC [15]: 0.4 µg/mL (≈ 0.697 µM) | MIC [16]: < 0.1 µg/mL | MIC [17]: 0.4 µg/mL (≈ 0.697 µM) | MIC [18]: 6.25 µg/mL (≈ 10.9 µM)
